“Also recorded” adds a separate entry of the source. Non-standard residues stand in square brackets, D forms with d. *: point of attachment. Myristoyl = CCCCCCCCCCCCCC(=O)*; pS = N[C@@H](COP(=O)(O)O)C(=O)O
Assays:
[1] = test system: fasting (atrophy-induced) mice, Tibialis Anterior (TA) muscle; experiment: Fasting-induced muscle atrophy in mice treated with GSK-3 inhibitors; assay type: in vivo; settings: for TA muscle weight (muscle atrophy): i.p. 0.5 mg CHIR98014 or 0.3 mg L803mts per mouse on day 1 and day 2 of fasting, vs fed and fasting vehicle controls (FIG. 3)
Source text: All animal experiments were consistent with Israel Council on Animal Experiments guidelines and the Institutional Regulations of Animal Care and Use. Specialized personnel provided mice care in the institutional animal facility. In fasting (2 d) experiments, food was removed from cages on the fifth day after electroporation.
Mice were divided into two groups: those subjected to fasting to induce muscle atrophy, and those that were fed and used as fed control. Mice of the fasting group were injected intraperitoneally with either CHIR98014 or L803mts to examine their effect on muscle wasting. Control groups (Fed, fasting) were injected with vehicle (3% DMSO in saline). Each mouse (27-30 grams body weight) was injected with 0.3 mg L803mts or 0.5 mg CHIR98014, twice: on the first and then on the second day of fasting. Whole Tibilis anterior (TA) muscles were then collected and the weight loss in these samples over 2 days was measured.
Tideglusib (4.35 mg/ml) was mixed with 26% PEG400 (v/v), 15% Cremophor EL (v/v), and 59% ddH2O (v/v), to a total volume of 2.3 ml. Each mouse received 200 microliter (μL) (0.87 mg Tideglusib) of the solution on the first day of fasting, and 150 μL (0.65 mg Tideglusib) on the second day.
Then, the efficacy of CHIR99021, another exemplary ATP-competitive GSK3β inhibitor, was evaluated. To this, fasting (atrophy-induced) mice were injected intraperitoneally with 16 mg/kg CHIR99021 (200 μL per mouse) on day 1 and on day 2 of fasting. At the end of the experiment, mice were sacrificed, and their tibialis anterior (TA) muscles were dissected and weighed, in comparison with fed mice and untreated fasting (atrophy-induced) mice.

GSK-3 = settings: background statement; cited from earlier work

Compound | TA muscle weight (muscle loss) ([1]; fasting mice, CHIR99021 16 mg/kg i.p. on day 1 and day 2 of fasting, data not shown, 16 mg/kg) | GSK-3 inhibition, potency and selectivity (GSK-3) | TA muscle weight (muscle atrophy) ([1]; 2-day fasting mice) | effect on muscle atrophy (body weight and TA muscle to body weight ratio) ([1]; 2-day fasting mice, Tideglusib via gavage, 0.87 mg on day 1 and 0.65 mg on day 2 (20-30 mg/kg) (FIGS. 4A-B))
Cc1c[nH]c(-c2cnc(NCCNc3ccc(C#N)cn3)nc2-c2ccc(Cl)cc2Cl)n1 [CHIR99021] | did not mitigate this muscle loss; also recorded: inferior activity | highly potent and selective inhibitors of GSK-3 |  | 
Nc1nc(NCCNc2ncc(-n3ccnc3)c(-c3ccc(Cl)cc3Cl)n2)ccc1[N+](=O)[O-] [CHIR98014] |  | highly potent and selective inhibitors of GSK-3 | no reduction in muscle weight compared to control; also recorded: completely prevented the reduction in muscle mass | 
O=c1sn(-c2cccc3ccccc23)c(=O)n1Cc1ccccc1 [Tideglusib] |  |  |  | minimal effect on preventing muscle atrophy; also recorded: minor effect in treating muscle atrophy
Myr-Gly-Lys-Glu-Ala-Pro-Pro-Ala-Pro-Pro-Gln-{Ser(p)}-Pro-NH2 (Myristoyl-GKEAPPAPPQ[pS]P-NH2; SMILES CCCCCCCCCCCCCC(=O)NCC(=O)N[C@@H](CCCCN)C(=O)N[C@@H](CCC(=O)O)C(=O)N[C@@H](C)C(=O)N1CCC[C@H]1C(=O)N1CCC[C@H]1C(=O)N[C@@H](C)C(=O)N1CCC[C@H]1C(=O)N1CCC[C@H]1C(=O)N[C@@H](CCC(N)=O)C(=O)N[C@@H](COP(=O)(O)O)C(=O)N1CCC[C@H]1C(N)=O) [L803-mts] |  |  | attenuation in muscle weight; also recorded: inferior activity to that of CHIR98014 | 

From patent publication US20250352544A1, “TREATMENT OF MUSCLE ATROPHY USING GSK-3 INHIBITORS” (Technion Research & Development Foundation Limited, priority 2024, published 2025)
